Data published in PubChem BioAssay AID1919006 (Molecular Pharmacology Branch, DTP, NCI, 2023).
pIC50: −log10 of the molar value.

Test system: 885512-296-R-J2-PDC complex spheroid growth, % test/control
Test: Anticancer human tumor 885512-296-R-J2-PDC patient-derived breast carcinoma cell line growth inhibition [AhR]
Conditions: for pIC50: curve of first compound; for viability, T/C: stronger effect = lower value; active means viability on the fitted dose curve at most 10% of control; inactive means the rest
Source text: Multicellular complex tumor spheroid response to aryl hydrocarbon receptor antagonists in combination with a variety of drugs and investigational agents in selected tumor cell lines
The current study was undertaken to assess response to aryl hydrocarbon receptor antagonists in combination with standard-of-care drugs and investigational agents in solid tumor complex spheroid models. Complex spheroids include a stromal component modeled by human endothelial cells (HUVEC) and fibroblasts modeled by human mesenchymal stem cells (MSCs). The concentration ranges selected for each drug and investigational agent were based upon clinically achievable concentrations if the clinical Cmax of the agent was known.
Compounds. The drugs and investigational agents: BAY 2416964 (NSC825713), GNF351 (NSC835774), CH-223191 (NSC835775), CPI-455 (NSC825282), aza-TdCyd (NSC777586), decitabine (NSC127716), belinostat (NSC758774), entinostat (NSC756642), pevonedistat (NSC761192), tazemetostat (NSC777109), talazoparib (NSC765396), olaparib (NSC753686), selinexor (NSC780203), nedisertib (M3814, NSC802822), bortezomib (NSC756655), venetoclax (NSC766270), doxorubicin (NSC123127), elimusertib (BAY189344, NSC800525), ceralasertib (AZD6738, NSC777638), TAK-243 (NSC785004), alisertib (NSC759677), etoposide (NSC141540), topotecan (NSC609699), eribulin (NSC707389), gemcitabine (NSC613327), carboplatin (NSC241240), cisplatin (NSC119875), and SN-38 (NSC673596) were obtained from the National Cancer Institute (NCI) Developmental Therapeutics Program Chemical Repository (32). The FDA-approved anticancer drug set is available from the Developmental Therapeutics Program at https://dtp.cancer.gov/organization/dscb/obtaining/available plates.htm. […] The stock solutions were prepared in dimethyl sulfoxide (DMSO, Sigma-Aldrich, St. Louis, MO, cat. D2650), except for the platinum compounds which were prepared in saline (Quality Biological, Gaithersburg, MD, cat. 114-055-101), at 800-fold the tested concentration and stored at -70 degrees C prior to their use. All drugs and investigational agents were tested over a range starting from a high concentration at or near the clinical Cmax and decreasing in half-log increments. If the clinical Cmax for an agent had not been determined, the highest concentration tested was 10 microM (Table 1).
Cell Culture. All cells were maintained in an incubator at 37 degrees C and 5% CO2 with 95% humidity. The PDC lines were cultured according to standard operating procedures established by the NCI PDMR (https://pdmr.cancer.gov). Briefly, all PDCs were thawed and cultured in Matrigel-coated flasks prepared with a working solution of 1X Ham's F-12 nutrient mix, without supplementation (Invitrogen, Waltham, MA, cat. 11765054), 100 U/mL penicillin-streptomycin (Invitrogen, cat. 15140122), and 2.5% Matrigel (Corning Inc., Corning, NY, cat. 354248) for the first three passages. All PDCs were cultured in complete DMEM/F-12 media containing advanced DMEM/F-12 (Invitrogen, cat. 12634028), 4.9% defined fetal bovine serum, heat inactivated (HyClone Laboratories Inc., Logan, UT, cat. SH30070.03HI), 389 ng/mL hydrocortisone (Sigma-Aldrich, cat. H4001), 9.7 ng/mL human EGF recombinant protein (Invitrogen, cat. PHG0313), 23.4 microg/mL adenine (Sigma-Aldrich, cat. A2786), 97.3 U/mL penicillin-streptomycin (Invitrogen, cat. 15140122), 1.9 mM L-glutamine (Invitrogen, cat. 25030081), and 9.7 microM Y-27632 dihydrochloride (Tocris Bioscience, Bristol, United Kingdom, cat. 1254). The PDCs were cultured in complete DMEM/F12 media without 10 microM Y-27632 dihydrochloride for at least two passages prior to the screen. The established cell lines NCI-H1341 and […] were cultured in DMEM/F-12, HEPES (Invitrogen, cat. 11330032), 5% defined fetal bovine serum (HyClone Laboratories Inc., cat. SH30070.03), ITS premix universal culture supplement [insulin (5 microg/mL), transferrin (5 microg/mL), and selenious acid (5 ng/mL)] […]
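Further: spheroids exposed to compounds for seven days.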

O=C(C=Cn1cnc(-c2cc(C(F)(F)F)cc(C(F)(F)F)c2)n1)NNc1cnccn1 + CC(CO)NC(=O)c1cc(-c2ccc(Cl)cc2)nn(-c2cnn(C)c2)c1=O
7.17: pIC50 (second compound 0.316 µM)
7.14: pIC50 (second compound 1 µM)
7.20: pIC50 (second compound 0.1 µM)
active: viability, T/C (second compound 0.1 µM, first compound 0.3 µM) 3.85% | viability, T/C (second compound 0.1 µM, first compound 0.949 µM) 2.45% | viability, T/C (second compound 0.1 µM, first compound 3 µM) 0.96% | viability, T/C (second compound 0.316 µM, first compound 0.3 µM) 3.67% | viability, T/C (second compound 0.316 µM, first compound 0.949 µM) 1.87% | viability, T/C (second compound 0.316 µM, first compound 3 µM) 0.84% | viability, T/C (second compound 1 µM, first compound 0.3 µM) 5.46% | viability, T/C (second compound 1 µM, first compound 0.949 µM) 1.59% | viability, T/C (second compound 1 µM, first compound 3 µM) 0.91% | viability, T/C (second compound 3.16 µM, first compound 0.3 µM) 6.14% | viability, T/C (second compound 3.16 µM, first compound 0.949 µM) 1.92% | viability, T/C (second compound 3.16 µM, first compound 3 µM) 0.85% | viability, T/C (second compound 10 µM, first compound 0.3 µM) 4.61% | viability, T/C (second compound 10 µM, first compound 0.949 µM) 2% | viability, T/C (second compound 10 µM, first compound 3 µM) 0.87%
inactive: viability, T/C (second compound 0.1 µM, first compound 0.00949 µM) 91.7% | viability, T/C (second compound 0.1 µM, first compound 0.03 µM) 99.7% | viability, T/C (second compound 0.1 µM, first compound 0.0949 µM) 24.6% | viability, T/C (second compound 0.316 µM, first compound 0.00949 µM) 101% | viability, T/C (second compound 0.316 µM, first compound 0.03 µM) 98.8% | viability, T/C (second compound 0.316 µM, first compound 0.0949 µM) 29.1% | viability, T/C (second compound 1 µM, first compound 0.00949 µM) 94.2% | viability, T/C (second compound 1 µM, first compound 0.03 µM) 109% | viability, T/C (second compound 1 µM, first compound 0.0949 µM) 33.4% | viability, T/C (second compound 3.16 µM, first compound 0.00949 µM) 92.2% | viability, T/C (second compound 3.16 µM, first compound 0.03 µM) 111% | viability, T/C (second compound 3.16 µM, first compound 0.0949 µM) 25.7% | viability, T/C (second compound 10 µM, first compound 0.00949 µM) 114% | viability, T/C (second compound 10 µM, first compound 0.03 µM) 107% | viability, T/C (second compound 10 µM, first compound 0.0949 µM) 24.1%
7.18: pIC50 (second compound 3.16 µM) | pIC50 (second compound 10 µM)

COc1cc(Nc2ncc3c(n2)-c2ccc(Cl)cc2C(c2c(F)cccc2OC)=NC3)ccc1C(=O)O + Cc1cncc(-c2nc(NCCc3c[nH]c4ccccc34)c3ncn(C(C)C)c3n2)c1
inactive: viability, T/C (second compound 0.1 µM, first compound 0.0316 µM) 49.5% | viability, T/C (second compound 0.1 µM, first compound 0.1 µM) 46.1% | viability, T/C (second compound 0.1 µM, first compound 0.316 µM) 47.6% | viability, T/C (second compound 0.1 µM, first compound 1 µM) 50.6% | viability, T/C (second compound 0.1 µM, first compound 3.16 µM) 30.2% | viability, T/C (second compound 0.1 µM, first compound 10 µM) 32% | viability, T/C (second compound 0.316 µM, first compound 0.0316 µM) 53.3% | viability, T/C (second compound 0.316 µM, first compound 0.1 µM) 43.6% | viability, T/C (second compound 0.316 µM, first compound 0.316 µM) 48% | viability, T/C (second compound 0.316 µM, first compound 1 µM) 42.4% | viability, T/C (second compound 0.316 µM, first compound 3.16 µM) 45.8% | viability, T/C (second compound 0.316 µM, first compound 10 µM) 34.2% | viability, T/C (second compound 1 µM, first compound 0.0316 µM) 44.5% | viability, T/C (second compound 1 µM, first compound 0.1 µM) 37.8% | viability, T/C (second compound 1 µM, first compound 0.316 µM) 46% | viability, T/C (second compound 1 µM, first compound 1 µM) 41.7% | viability, T/C (second compound 1 µM, first compound 3.16 µM) 39.7% | viability, T/C (second compound 1 µM, first compound 10 µM) 39.5% | viability, T/C (second compound 3.16 µM, first compound 0.0316 µM) 32.6% | viability, T/C (second compound 3.16 µM, first compound 0.1 µM) 35.6% | viability, T/C (second compound 3.16 µM, first compound 0.316 µM) 33.6% | viability, T/C (second compound 3.16 µM, first compound 1 µM) 34% | viability, T/C (second compound 3.16 µM, first compound 3.16 µM) 32.2% | viability, T/C (second compound 3.16 µM, first compound 10 µM) 31.2% | viability, T/C (second compound 10 µM, first compound 0.0316 µM) 16.2% | viability, T/C (second compound 10 µM, first compound 0.1 µM) 12.8% | viability, T/C (second compound 10 µM, first compound 0.316 µM) 13.3% | viability, T/C (second compound 10 µM, first compound 1 µM) 14.8% | viability, T/C (second compound 10 µM, first compound 3.16 µM) 17.2% | viability, T/C (second compound 10 µM, first compound 10 µM) 17.6%
7.32: pIC50 (second compound 0.316 µM)
7.50: pIC50 (second compound 0.1 µM)
> 7.50: pIC50 (second compound 1 µM) | pIC50 (second compound 3.16 µM) | pIC50 (second compound 10 µM)
